Consider 32 molecules from patent US20240173419A1, “CDK2 DEGRADERS AND USES THEREOF” (Kymera Therapeutics, Inc., priority 2022, published 2024).

Molecules are shown by their SMILES. Bounds are passed on as bounds.

In this experiment the target is T1, CDK2 (Homo sapiens, UniProt P24941).
T1 construct: endogenous in cells; host or cells: MKN1 cells
Description: CDK2 degradation in MKN1 cells (AlphaLISA). The experiment is classed as cell-based. As to conditions: for CDK2 degradation 14 h: Average Dmax % / DC50: 14 h incubation; for DC50: read-out: CDK2 degradation 14 h: Mean external-Abs DC50; for Dmax: MKN-1, 14 h incubation. An outline of the steps: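 DC50 from four-parameter logistic fit of AlphaLISA CDK2 signal, corrected for no-cell wells. Lysates came from MKN1 cells, 2e4 per well, exposed 14 h at 37° C to compound at 0.001 nM-10 μM (1:5 series, 11 doses) in 0.1% DMSO.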

As to `Cc1cc(S(=O)(=O)N2CCC(CN(C)C3CCN(c4cccc5c4n(C)c(=O)n5C4CCC(=O)NC4=O)CC3)CC2)ccc1Nc1ncc2c(n1)N(C1CCCC1)C(=O)C21CC1` (stereo not shown) [I-536], the “CDK2 degradation 14 h: Average Dmax %” value was “A (A (>75% o))” and the half-maximal degradation concentration (DC50) (as a rule, the concentration at which degradation of the target reaches its halfway point) was under 100 nM.
For `Cc1cc(S(=O)(=O)NCCOC2CCC(CN3CCC(c4ccc5c(c4)n(C)c(=O)n5C4CCC(=O)NC4=O)CC3)CC2)ccc1Nc1ncc2c(n1)N(C1CCCC1)C(=O)C21CC1` (stereo not shown) [I-537], the “CDK2 degradation 14 h: Average Dmax %” value is recorded as “A (A (>75% o))” and the 50% degradation concentration (DC50) is under 100 nM.
On to `Cc1cc(S(=O)(=O)C2CC3(CCN(CC4CCN(c5ccc6c(c5F)n(C)c(=O)n6C5CCC(=O)NC5=O)CC4)CC3)C2)ccc1Nc1ncc2c(n1)N(C1CCCC(O)C1)C(=O)C21CC1` (stereo not shown) [I-609], for which the “CDK2 degradation 14 h: Average Dmax %” value is “A (A (>75% o))” and the DC50 was under 100 nM.
With `Cc1cc(S(=O)(=O)NC2CC(N3CCN(CC4CCN(c5cccc6c5n(C)c(=O)n6C5CCC(=O)NC5=O)CC4)CC3)C2)ccc1Nc1ncc(C(F)(F)F)c(N2CCCC(C)(O)C2)n1` (stereo not shown) [I-663], the “CDK2 degradation 14 h: Average Dmax %” value is on record as “A (A (>75% o))” and the DC50 is under 100 nM.
With `Cc1cc(S(=O)(=O)NC2(C)CC(N3CCN(CC4CCN(c5ccc6c(c5F)n(C)c(=O)n6C5CCC(=O)NC5=O)CC4)CC3)C2)ccc1Nc1ncc(C(F)(F)F)c(N2CCCC(C)(O)C2)n1` (stereo not shown) [I-666], the “CDK2 degradation 14 h: Average Dmax %” value was “A (A (>75% o))” and the 50% degradation concentration (DC50) is under 100 nM.
`Cc1cc(S(=O)(=O)NC2CCC(N3CCN(CC4CN(c5cccc6c5n(C)c(=O)n6C5CCC(=O)NC5=O)C4)CC3)CC2)ccc1Nc1ncc(C(F)(F)F)c(N2CCCC(C)(O)C2)n1` (stereo not shown) [I-686]: the “CDK2 degradation 14 h: Average Dmax %” value is listed as “A (A (>75% o))” and the 50% degradation concentration (DC50) is under 100 nM.
Taken in the same sequence, the figures for `Cc1cc(S(=O)(=O)NC2CC(N3CCC4(CC3)CN(Cc3cccc5c3n(C)c(=O)n5C3CCC(=O)NC3=O)C4)C2)ccc1Nc1ncc(C(F)(F)F)c(N2CCCC(C)(O)C2)n1` (stereo not shown) [I-697] were “A (A (>75% o))” and 100 to 500 nM.
As to `Cc1cc(S(=O)(=O)NC2CC(N3CCN(CC4(F)CCN(c5cccc6c5n(C)c(=O)n6C5CCC(=O)NC5=O)CC4)CC3)C2)ccc1Nc1ncc(C(F)(F)F)c(N2CCCC(C)(O)C2)n1` (stereo not shown) [I-698], the “CDK2 degradation 14 h: Average Dmax %” value is on record as “A (A (>75% o))” and the half-maximal degradation concentration (DC50) was under 100 nM.
For the molecule `Cc1cc(S(=O)(=O)NC2CC(N3CCC(F)(CN4CCC(c5cccc6c5n(C)c(=O)n6C5CCC(=O)NC5=O)CC4)CC3)C2)ccc1Nc1ncc(C(F)(F)F)c(N2CCCC(C)(O)C2)n1` (stereo not shown) [I-699], the “CDK2 degradation 14 h: Average Dmax %” value was “A (A (>75% o))” and the 50% degradation concentration (DC50) is under 100 nM.
Consider `Cc1cc(S(=O)(=O)NC2CC(N3CCCN(CC4CCN(c5cccc6c5n(C)c(=O)n6C5CCC(=O)NC5=O)CC4)CC3)C2)ccc1Nc1ncc(C(F)(F)F)c(N2CCCC(C)(O)C2)n1` (stereo not shown) [I-704], for which the “CDK2 degradation 14 h: Average Dmax %” value is listed as “A (A (>75% o))” and the DC50 is under 100 nM.
For `Cc1cc(S(=O)(=O)NC2CC(N3CCN(CC4CCN(c5ccc(NC6CCC(=O)NC6=O)cc5C)CC4)CC3)C2)ccc1Nc1ncc(C(F)(F)F)c(N2CCCC(C)(O)C2)n1` (stereo not shown) [I-712], the “CDK2 degradation 14 h: Average Dmax %” value was “B (B (>50% -75%))” and the DC50 is under 100 nM.
Regarding `Cc1cc(S(=O)(=O)NC2CC(N3CCN(CC4CCN(c5ccc(C6CCC(=O)NC6=O)c(Cl)c5)CC4)CC3)C2)ccc1Nc1ncc(C(F)(F)F)c(N2CCCC(C)(O)C2)n1` (stereo not shown) [I-713], the “CDK2 degradation 14 h: Average Dmax %” value is given as “A (A (>75% o))” and the 50% degradation concentration (DC50) is under 100 nM.
Take `Cc1cc(S(=O)(=O)NC2CC(N3CCN(CC4CCN(c5ccc(C6CCC(=O)NC6=O)c(Cl)c5)CC4)CC3)C2)ccc1Nc1ncc(C(F)(F)F)c(N2CCCC(C)(O)C2)n1` (stereo not shown) [I-714]: the “CDK2 degradation 14 h: Average Dmax %” value is reported as “A (A (>75% o))” and the half-maximal degradation concentration (DC50) is under 100 nM.
`Cc1cc(S(=O)(=O)NC2CC(N3CCN(CC4CCN(c5ccc(Cl)c(C6CCC(=O)NC6=O)c5)CC4)CC3)C2)ccc1Nc1ncc(C(F)(F)F)c(N2CCCC(C)(O)C2)n1` (stereo not shown) [I-715]: the “CDK2 degradation 14 h: Average Dmax %” value is given as “A (A (>75% o))” and the DC50 was under 100 nM.
Regarding `Cc1cc(S(=O)(=O)NC2CC(N3CCN(CC4CCN(c5ccc(Cl)c(NC6CCC(=O)NC6=O)c5)CC4)CC3)C2)ccc1Nc1ncc(C(F)(F)F)c(N2CCCC(C)(O)C2)n1` (stereo not shown) [I-716], the “CDK2 degradation 14 h: Average Dmax %” value is listed as “B (B (>50% -75%))” and the DC50 was over 1000 nM.
Taken in the same sequence, the figures for `Cc1cc(S(=O)(=O)NC2CC(N3CCN(CC4CCN(c5ccc(NC6CCC(=O)NC6=O)c(Cl)c5)CC4)CC3)C2)ccc1Nc1ncc(C(F)(F)F)c(N2CCCC(C)(O)C2)n1` (stereo not shown) [I-717] were “A (A (>75% o))” and under 100 nM.
Regarding `Cc1cc(S(=O)(=O)NC2CC(N3CCN(CC4CCN(c5cccc(C6CCC(=O)NC6=O)c5)CC4)CC3)C2)ccc1Nc1ncc(C(F)(F)F)c(N2CCCC(C)(O)C2)n1` (stereo not shown) [I-718], the “CDK2 degradation 14 h: Average Dmax %” value is “A (A (>75% o))” and the DC50 was in the range of 100 to 500 nM.
Consider `Cc1cc(S(=O)(=O)NC2CC(N3CCN(CC4CCN(c5ccc(C6CCC(=O)NC6=O)cc5)CC4)CC3)C2)ccc1Nc1ncc(C(F)(F)F)c(N2CCCC(C)(O)C2)n1` (stereo not shown) [I-719], for which the “CDK2 degradation 14 h: Average Dmax %” value is recorded as “A (A (>75% o))” and the DC50 is under 100 nM.
On to `Cc1cc(S(=O)(=O)NC2CC(N3CCN(CC4CCN(c5cc(NC6CCC(=O)NC6=O)ccc5Cl)CC4)CC3)C2)ccc1Nc1ncc(C(F)(F)F)c(N2CCCC(C)(O)C2)n1` (stereo not shown) [I-720], for which the “CDK2 degradation 14 h: Average Dmax %” value is given as “A (A (>75% o))” and the half-maximal degradation concentration (DC50) is under 100 nM.
For `Cc1cc(S(=O)(=O)NC2CC(N3CCN(CC4CCN(c5ccc(N6CCC(=O)NC6=O)c(Cl)c5)CC4)CC3)C2)ccc1Nc1ncc(C(F)(F)F)c(N2CCCC(C)(O)C2)n1` (stereo not shown) [I-721], the “CDK2 degradation 14 h: Average Dmax %” value is on record as “A (A (>75% o))” and the DC50 is under 100 nM.
On to `Cc1cc(S(=O)(=O)NC2CC(N3CCN(CC4CCN(c5ccc(Cl)c(N6CCC(=O)NC6=O)c5)CC4)CC3)C2)ccc1Nc1ncc(C(F)(F)F)c(N2CCCC(C)(O)C2)n1` (stereo not shown) [I-722], for which the “CDK2 degradation 14 h: Average Dmax %” value is “A (A (>75% o))” and the half-maximal degradation concentration (DC50) is under 100 nM.
In the case of `Cc1cc(S(=O)(=O)NC2CCC(CN3CCN(c4ccc(C5CCC(=O)NC5=O)c(Cl)c4)CC3)CC2)ccc1Nc1ncc(C(F)(F)F)c(N2CCC[C@](C)(O)C2)n1` (stereo partly drawn) [I-745, N-[4-[[4-[3-chloro-4-(2,6-dioxo-3-piperidyl)phenyl]piperazin-1-yl]methyl]cyclohexyl]-4-[[4-[(3S)-3-hydroxy-3-methyl-1-piperidyl]-5-(trifluoromethyl)pyrimidin-2-yl]amino]-3-methyl-benzenesulfonamide], the DC50 is under 100 nM and the Dmax (usually the greatest extent of degradation seen) was over 75%.
With `Cc1cc(S(=O)(=O)N[C@H](C)CO[C@H]2CC[C@H](CN3CCN(c4cccc5c4n(C)c(=O)n5C4CCC(=O)NC4=O)CC3)CC2)ccc1Nc1ncc(C(F)(F)F)c(N2CCC[C@](C)(O)C2)n1` (stereo partly drawn) [I-766, N-[(1R)-2-[4-[[4-[1-(2,6-dioxo-3-piperidyl)-3-methyl-2-oxo-benzimidazol-4-yl]piperazin-1-yl]methyl]cyclohexoxy]-1-methyl-ethyl]-4-[[4-[(3S)-3-hydroxy-3-methyl-1-piperidyl]-5-(trifluoromethyl)pyrimidin-2-yl]amino]-3-methyl-benzenesulfonamide], the DC50 is under 100 nM and the Dmax is over 75%.
Take `Cc1cc(S(=O)(=O)NC2CCC(CN3CCN(c4cccc(NC5CCC(=O)NC5=O)c4)CC3)CC2)ccc1Nc1ncc(C(F)(F)F)c(N2CCCC(C)(O)C2)n1` (stereo not shown) [I-775]: the “CDK2 degradation 14 h: Average Dmax %” value is given as “A (A (>75% o))” and the DC50 was under 100 nM.
Consider `Cc1cc(S(=O)(=O)NC2CC(N3CCN(CC4CCN(c5cccc6c5n(C)c(=O)n6C5CCC(=O)NC5=O)CC4)CC3)C2)ccc1Nc1ncc(C(F)(F)F)c(N2CCCCC2)n1` (stereo not shown) [I-795], for which the “CDK2 degradation 14 h: Average Dmax %” value is “A (A (>75% o))” and the half-maximal degradation concentration (DC50) is under 100 nM.
Regarding `Cc1cc(S(=O)(=O)N[C@H]2C[C@H](N3CCN(CC4CCN(c5cccc6c5n(C)c(=O)n6C5CCC(=O)NC5=O)CC4)CC3)C2)ccc1Nc1ncc(C(F)(F)F)c(N2CCC[C@H](C(F)F)C2)n1` (stereo partly shown) [I-796], the “CDK2 degradation 14 h: Average Dmax %” value is listed as “A (A (>75% o))” and the DC50 is under 100 nM.
Taken in the same sequence, the figures for `Cc1cc(S(=O)(=O)N[C@H]2C[C@H](N3CCN(CC4CCN(c5cccc6c5n(C)c(=O)n6C5CCC(=O)NC5=O)CC4)CC3)C2)ccc1Nc1ncc(C(F)(F)F)c(N2CCC[C@@H](C(F)F)C2)n1` (stereo partly shown) [I-797] were “A (A (>75% o))” and under 100 nM.
With `Cc1cc(S(=O)(=O)NC2CCC(CN3CCN(c4ccc(C5CCC(=O)NC5=O)cc4)CC3)CC2)ccc1Nc1ncc(C(F)(F)F)c(N2CCCC(C)(O)C2)n1` (stereo not shown) [I-799], the “CDK2 degradation 14 h: Average Dmax %” value is given as “A (A (>75% o))” and the DC50 is under 100 nM.
Consider `Cc1cc(S(=O)(=O)NC2CCC(CN3CCN(c4cc(Cl)c(C5CCC(=O)NC5=O)cc4F)CC3)CC2)ccc1Nc1ncc(C(F)(F)F)c(N2CCCC(C)(O)C2)n1` (stereo not shown) [I-800], for which the “CDK2 degradation 14 h: Average Dmax %” value is listed as “A (A (>75% o))” and the half-maximal degradation concentration (DC50) is under 100 nM.
As to `Cc1cc(S(=O)(=O)NC2(C)CCN(CC3CCN(c4ccc(C5CCC(=O)NC5=O)c(Cl)c4)CC3)CC2)ccc1Nc1ncc(C(F)(F)F)c(N2CCC[C@](C)(O)C2)n1` (stereo partly shown) [I-801], the “CDK2 degradation 14 h: Average Dmax %” value is “A (A (>75% o))” and the DC50 was under 100 nM.
Turning to `Cc1cc(S(=O)(=O)NC23CCC(CN4CCN(c5ccc(C6CCC(=O)NC6=O)cc5)CC4)(CC2)CC3)ccc1Nc1ncc(C(F)(F)F)c(N2CCC[C@](C)(O)C2)n1` (stereo partly shown) [I-802], the “CDK2 degradation 14 h: Average Dmax %” value is “A (A (>75% o))” and the 50% degradation concentration (DC50) is under 100 nM.
Taken in the same sequence, the figures for `Cc1cc(S(=O)(=O)NC2(C)CCC(CN3CCN(c4ccc(C5CCC(=O)NC5=O)cc4F)CC3)CC2)ccc1Nc1ncc(C(F)(F)F)c(N2CCC[C@](C)(O)C2)n1` (stereo partly shown) [I-803] were “A (A (>75% o))” and under 100 nM.
